pIC50: −log10 of the molar value.
Experiments:
[1] = target: T1, Voltage-gated inwardly rectifying potassium channel KCNH2 (Homo sapiens, UniProt Q12809)
Description: Inhibition of human ERG expressed in HEK293 cells by Barracuda automated patch clamp assay

[2] = target: T1, Voltage-gated inwardly rectifying potassium channel KCNH2; remark: listed apart in the source
Description: Inhibition of human ERG expressed in HEK293 cells by Q-patch assay

physchem = conditions: buffer, pH 7.4, logD
[3] = Protein binding in human blood at 1 ug/ml after 4 hrs by LC-MS/MS analysis; format: ADME, tissue-based; conditions: at 1 µg/mL, read-out: PB (converted)

T1 sequence (Q12809 whole entry): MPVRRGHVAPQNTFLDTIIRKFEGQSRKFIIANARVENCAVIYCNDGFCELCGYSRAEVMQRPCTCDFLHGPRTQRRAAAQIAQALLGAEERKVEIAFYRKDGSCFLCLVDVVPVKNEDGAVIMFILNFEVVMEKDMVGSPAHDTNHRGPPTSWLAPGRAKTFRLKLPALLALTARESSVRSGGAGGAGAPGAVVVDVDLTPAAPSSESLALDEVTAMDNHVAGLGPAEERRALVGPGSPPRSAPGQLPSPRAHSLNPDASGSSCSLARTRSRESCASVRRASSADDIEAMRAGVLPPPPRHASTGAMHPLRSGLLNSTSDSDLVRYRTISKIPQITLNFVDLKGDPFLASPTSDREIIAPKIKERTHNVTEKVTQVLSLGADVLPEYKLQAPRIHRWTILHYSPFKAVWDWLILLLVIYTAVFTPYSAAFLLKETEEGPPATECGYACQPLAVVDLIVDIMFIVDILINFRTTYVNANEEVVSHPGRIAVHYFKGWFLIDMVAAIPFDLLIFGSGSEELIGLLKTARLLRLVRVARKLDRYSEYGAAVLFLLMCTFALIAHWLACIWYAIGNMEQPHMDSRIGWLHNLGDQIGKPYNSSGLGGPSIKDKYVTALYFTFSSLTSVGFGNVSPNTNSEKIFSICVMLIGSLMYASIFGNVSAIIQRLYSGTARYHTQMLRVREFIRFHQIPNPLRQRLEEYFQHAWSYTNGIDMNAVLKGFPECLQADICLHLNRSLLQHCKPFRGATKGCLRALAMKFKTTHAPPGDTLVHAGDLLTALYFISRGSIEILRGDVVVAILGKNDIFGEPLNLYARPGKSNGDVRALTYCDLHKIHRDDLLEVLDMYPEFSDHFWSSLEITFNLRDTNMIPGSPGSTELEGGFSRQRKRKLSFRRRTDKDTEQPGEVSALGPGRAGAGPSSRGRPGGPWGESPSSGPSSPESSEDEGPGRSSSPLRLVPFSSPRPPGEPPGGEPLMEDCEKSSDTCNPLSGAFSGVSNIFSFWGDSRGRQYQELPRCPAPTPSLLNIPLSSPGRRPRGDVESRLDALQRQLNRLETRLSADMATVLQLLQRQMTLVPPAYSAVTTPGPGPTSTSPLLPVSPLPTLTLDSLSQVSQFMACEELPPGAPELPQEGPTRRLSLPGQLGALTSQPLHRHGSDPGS

Structure (SMILES) | logD (physchem) | fraction unbound at 4 h, 1 ug/ml [3] | pIC50 [1] | pIC50 [2]
O=C(O)C[C@H](CN1CC[C@@H](CCc2ccc3c(n2)NCCC3)C1)c1cc(C2CC2)cc(N2CCOCC2)c1 | 3.07 | – | – | –
O=C(O)C[C@@H](CN1CC[C@@H](CCc2ccc3c(n2)NCCC3)C1)c1cccc(N2CCOCC2)c1 | 1.99 | – | – | –
Cc1nc(C)c(-c2cccc([C@H](CC(=O)O)CN3CC[C@@H](CCc4ccc5c(n4)NCCC5)C3)c2)[nH]1 | 1.77 | 0.53 | < 4.30 | < 4.50

More lines, main results first:

logD (physchem) | fraction unbound at 4 h, 1 ug/ml [3] | Structure (SMILES) | pIC50 [1] | pIC50 [2]
2.09 | – | Cc1cn(C)c(-c2cccc([C@H](CC(=O)O)CN3CC[C@@H](CCc4ccc5c(n4)NCCC5)C3)c2)n1 | < 4.30 | < 4.50
1.05 | 0.46 | O=C(O)C[C@H](CN1CC[C@@H](CCc2ccc3c(n2)NCCC3)C1)c1cccc(-n2cnnc2)c1 | < 4.30 | < 4.50
3.01 | – | Cc1cnn(-c2cccc([C@H](CC(=O)O)CN3CC[C@@H](CCc4ccc5c(n4)NCCC5)C3)c2)c1 | 5.00 | –

— ChEMBL document CHEMBL4229566, “Discovery of ( S)-3-(3-(3,5-Dimethyl-1 H-pyrazol-1-yl)phenyl)-4-(( R)-3-(2-(5,6,7,8-tetrahydro-1,8-naphthyridin-2-yl)ethyl)pyrrolidin-1-yl)butanoic Acid, a Nonpeptidic αvβ6 Integrin Inhibitor for the Inhaled Treatment of Idiopathic Pulmonary Fibrosis” (J Med Chem, 2018)
